Results: US20060004088A1, “Furan derivatives for preventing and curing osteoporosis and pharmaceutical compositions containing the same” (OCT INC., priority 2002, published 2006)

Test system: osteoclast pregenitor cells
Experiment: Inhibition rates of furan derivatives versus osteoclast formation (TRAP staining)
Assay type: cell-based, mice
Conditions: TRAP-positive multinucleated cells, untreated control set as 100%
Experimental: First, bone marrow cells were isolated, as follow. After sacrificing 7-9 week female mice by cervical dislocation, femur and tibia were excised aseptically while removing attached soft tissues. After cutting both ends of long bones, 1 ml of an enzyme solution, containing 0.1% collagenase (Gibco), 0.05% trypsin and 0.5 mM EDTA (Gibco), was injected to the bone marrow cavity at one end using a syringe with a 26-guage needle, and bone marrow was then collected. After shaking the recovered bone marrow for 30 min, bone marrow cells were collected, and cultured in α-minimum essential medium (α-MEM) supplemented with 10% FBS for 24 hrs. Then, non-adherent cells were collected, which are osteoclast pregenitors, aliquotted onto culture plates at a density of 2×10^5 cells per well, and cultured for 8 days in α-MEM supplemented with 20 ng/ml of macrophage-colony stimulating factor (M-CSF, Peprotech, USA) and 30 ng/ml RANKL (Peprotech, USA). During the 8 days of culturing, the cells were treated with the Compound 1. Thereafter, osteoclast formation was investigated by fixing the cultured cells and then carrying out TRAP staining, as described in the following Experimental Example 2.2. In addition, resorption activity of osteoclasts was investigated by measuring the absorption area after removing osteoclasts in cultures in calcium phosphate-coated plates, as described in Experimental Example 2.3, below.
After cell culture, the adherent cells were washed with PBS, and TRAP staining was performed, as follows. After being fixed with citrate-acetate-formaldehyde for 5 min, the cells were incubated for 1 hr in acetate buffer (prewarmed at 37° C., pH 5.0) containing naphthol AS-BI phosphate, fast Garnet GBC and 7 mM tartrate buffer (pH 5.0). TRAP-positive multinucleated cells having 3 or more nuclei were considered as osteoclasts.
Osteoclast pregenitor cells were isolated, and their differentiation to mature osteoclasts was induced, according to the same method as in the Experimental Example 2-1, while treated with each of the furan derivatives of the present invention. According to the same method as in the Experimental Example 2-2, TRAP staining performed, and TRAP-positive multinucleated cells were counted. An inhibition rate of each furan derivative against osteoclast formation was expressed as percentage, wherein the number of stained cells in a control not treated the furan derivative was arbitrarily set as 100% (Tables 14 to 16).

Compound: Cc1cc(OCc2ccc(C(=O)O)o2)ccc1Cl [Compound 119]
- Inhibition rate against osteoclast formation, % (0.1 μM): 0%
- Inhibition rate against osteoclast formation, % (1 μM): 0%
- Inhibition rate against osteoclast formation, % (10 μM): 37.02%

Compound: O=C(O)c1ccc(CSCc2ccccc2)o1 [Compound 120]
- Inhibition rate against osteoclast formation, % (0.1 μM): 0%
- Inhibition rate against osteoclast formation, % (1 μM): 0%
- Inhibition rate against osteoclast formation, % (10 μM): 27.99%

Compound: CCC(C)NC(=O)c1ccc(COc2ccc(I)cc2)o1 (stereo not drawn) [Compound 121]
- Inhibition rate against osteoclast formation, % (0.1 μM): 0%
- Inhibition rate against osteoclast formation, % (1 μM): 0%
- Inhibition rate against osteoclast formation, % (10 μM): 7.12%

Compound: CCN(CC)C(=O)c1ccc(COc2ccc(Cl)c(C)c2)o1 [Compound 123]
- Inhibition rate against osteoclast formation, % (0.1 μM): 0%
- Inhibition rate against osteoclast formation, % (1 μM): 6.9%
- Inhibition rate against osteoclast formation, % (10 μM): 100%

Compound: CC1CCN(C(=O)c2ccc(COc3cc(Cl)ccc3Cl)o2)CC1 [Compound 124]
- Inhibition rate against osteoclast formation, % (0.1 μM): 0%
- Inhibition rate against osteoclast formation, % (1 μM): 0%
- Inhibition rate against osteoclast formation, % (10 μM): 7.62%

Compound: CC(C)(C)NC(=O)c1ccc(COCC(F)(F)F)o1 [Compound 127]
- Inhibition rate against osteoclast formation, % (0.1 μM): 0%
- Inhibition rate against osteoclast formation, % (1 μM): 0%
- Inhibition rate against osteoclast formation, % (10 μM): 13.82%

Compound: O=C(c1ccc(COc2ccccc2Br)o1)N1CCCCCC1 [Compound 128]
- Inhibition rate against osteoclast formation, % (0.1 μM): 6.54%
- Inhibition rate against osteoclast formation, % (1 μM): 0%
- Inhibition rate against osteoclast formation, % (10 μM): 97.65%

Compound: CC(C)(C)NC(=O)c1ccc(COc2ccccc2Br)o1 [Compound 129]
- Inhibition rate against osteoclast formation, % (0.1 μM): 0%
- Inhibition rate against osteoclast formation, % (1 μM): 0%
- Inhibition rate against osteoclast formation, % (10 μM): 2.2%

Compound: CC(C)NC(=O)c1ccc(CNc2cc(Cl)ccc2Cl)o1 [Compound 130]
- Inhibition rate against osteoclast formation, % (0.1 μM): 0%
- Inhibition rate against osteoclast formation, % (1 μM): 0%
- Inhibition rate against osteoclast formation, % (10 μM): 7.84%

Compound: Cc1cc(OCc2ccc(C(=O)N3CCOCC3)o2)ccc1Cl [Compound 132]
- Inhibition rate against osteoclast formation, % (0.1 μM): 0%
- Inhibition rate against osteoclast formation, % (1 μM): 0%
- Inhibition rate against osteoclast formation, % (10 μM): 62.30%

Compound: O=C(c1ccc(COc2cc(Cl)ccc2Cl)o1)N1CCCCCC1 [Compound 133]
- Inhibition rate against osteoclast formation, % (0.1 μM): 0%
- Inhibition rate against osteoclast formation, % (1 μM): 0%
- Inhibition rate against osteoclast formation, % (10 μM): 0.5%

Compound: CC(C)(C)c1ccc(OCc2ccc(C(=O)NC3CCCCC3)o2)cc1 [Compound 134]
- Inhibition rate against osteoclast formation, % (0.1 μM): 0%
- Inhibition rate against osteoclast formation, % (1 μM): 0%
- Inhibition rate against osteoclast formation, % (10 μM): 21.42%

Compound: CC(C)(C)c1ccc(OCc2ccc(C(=O)Nc3ccccc3)o2)cc1 [Compound 136]
- Inhibition rate against osteoclast formation, % (0.1 μM): 0%
- Inhibition rate against osteoclast formation, % (1 μM): 0%
- Inhibition rate against osteoclast formation, % (10 μM): 2.49%

Compound: O=C(Nc1ccccc1)c1ccc(COc2ccc3ccccc3c2)o1 [Compound 137]
- Inhibition rate against osteoclast formation, % (0.1 μM): 0%
- Inhibition rate against osteoclast formation, % (1 μM): 0%
- Inhibition rate against osteoclast formation, % (10 μM): 38.3%

Compound: O=C(Nc1cccc(Br)c1)c1ccc(COc2ccc(F)cc2)o1 [Compound 140]
- Inhibition rate against osteoclast formation, % (0.1 μM): 0%
- Inhibition rate against osteoclast formation, % (1 μM): 0%
- Inhibition rate against osteoclast formation, % (10 μM): 11.93%

Compound: O=C(Nc1ccc(F)cc1)c1ccc(COc2cccc(Cl)c2)o1 [Compound 141]
- Inhibition rate against osteoclast formation, % (0.1 μM): 0%
- Inhibition rate against osteoclast formation, % (1 μM): 0%
- Inhibition rate against osteoclast formation, % (10 μM): 13.01%

Compound: COc1ccc(NC(=O)c2ccc(COc3ccccc3Cl)o2)cc1Cl [Compound 142]
- Inhibition rate against osteoclast formation, % (0.1 μM): 0%
- Inhibition rate against osteoclast formation, % (1 μM): 0%
- Inhibition rate against osteoclast formation, % (10 μM): 32.17%

Compound: O=C(Nc1ccc(F)c(F)c1)c1ccc(COc2ccc(I)cc2)o1 [Compound 143]
- Inhibition rate against osteoclast formation, % (0.1 μM): 0%
- Inhibition rate against osteoclast formation, % (1 μM): 0%
- Inhibition rate against osteoclast formation, % (10 μM): 10.63%

Compound: CCOc1ccccc1NC(=O)c1ccc(COc2ccc(Cl)cc2[N+](=O)[O-])o1 [Compound 144]
- Inhibition rate against osteoclast formation, % (0.1 μM): 0%
- Inhibition rate against osteoclast formation, % (1 μM): 21.95%
- Inhibition rate against osteoclast formation, % (10 μM): 85.25%

Compound: COc1ccc(NC(=O)c2ccc(COc3cc(Cl)ccc3Cl)o2)c(OC)c1 [Compound 145]
- Inhibition rate against osteoclast formation, % (0.1 μM): 0%
- Inhibition rate against osteoclast formation, % (1 μM): 5.98%
- Inhibition rate against osteoclast formation, % (10 μM): 83.3%

Compound: O=C(Nc1ccc(Br)cc1)c1ccc(COc2ccc(I)cc2)o1 [Compound 146]
- Inhibition rate against osteoclast formation, % (0.1 μM): 0%
- Inhibition rate against osteoclast formation, % (1 μM): 0%
- Inhibition rate against osteoclast formation, % (10 μM): 10.03%

Compound: Cc1ccc(OCc2ccc(C(=O)Nc3ccc(F)cc3)o2)c([N+](=O)[O-])c1 [Compound 147]
- Inhibition rate against osteoclast formation, % (0.1 μM): 6.11%
- Inhibition rate against osteoclast formation, % (1 μM): 19.4%
- Inhibition rate against osteoclast formation, % (10 μM): 99.72%

Compound: NC(=O)c1ccc(NC(=O)c2ccc(COc3cc(Cl)ccc3Cl)o2)cc1 [Compound 148]
- Inhibition rate against osteoclast formation, % (0.1 μM): 0%
- Inhibition rate against osteoclast formation, % (1 μM): 3.05%
- Inhibition rate against osteoclast formation, % (10 μM): 47.55%

Compound: COc1ccc(NC(=O)c2ccc(COc3ccc(F)cc3)o2)c([N+](=O)[O-])c1 [Compound 149]
- Inhibition rate against osteoclast formation, % (0.1 μM): 0%
- Inhibition rate against osteoclast formation, % (1 μM): 10.32%
- Inhibition rate against osteoclast formation, % (10 μM): 78.34%

Compound: COc1ccc(NC(=O)c2ccc(COc3ccc(Cl)c(C)c3)o2)cc1 [Compound 150]
- Inhibition rate against osteoclast formation, % (0.1 μM): 0%
- Inhibition rate against osteoclast formation, % (1 μM): 0%
- Inhibition rate against osteoclast formation, % (10 μM): 19.12%

Compound: O=C(Nc1cc(F)ccc1F)c1ccc(COc2cccc(Cl)c2)o1 [Compound 151]
- Inhibition rate against osteoclast formation, % (0.1 μM): 0%
- Inhibition rate against osteoclast formation, % (1 μM): 0%
- Inhibition rate against osteoclast formation, % (10 μM): 19.8%

Compound: COC(=O)c1ccc(C)c(NC(=O)c2ccc(COc3ccc(I)cc3)o2)c1 [Compound 152]
- Inhibition rate against osteoclast formation, % (0.1 μM): 5.37%
- Inhibition rate against osteoclast formation, % (1 μM): 0.08%
- Inhibition rate against osteoclast formation, % (10 μM): 37.56%

Compound: Cc1ccc(F)c(NC(=O)c2ccc(COc3ccc(C)cc3[N+](=O)[O-])o2)c1 [Compound 155]
- Inhibition rate against osteoclast formation, % (0.1 μM): 0%
- Inhibition rate against osteoclast formation, % (1 μM): 0%
- Inhibition rate against osteoclast formation, % (10 μM): 27.92%

Compound: O=C(Nc1cccc(Cl)c1Cl)c1ccc(COc2ccccc2[N+](=O)[O-])o1 [Compound 156]
- Inhibition rate against osteoclast formation, % (0.1 μM): 13.01%
- Inhibition rate against osteoclast formation, % (1 μM): 18.26%
- Inhibition rate against osteoclast formation, % (10 μM): 98.48%

Compound: COc1ccccc1NC(=O)c1ccc(COc2cc(C)ccc2C)o1 [Compound 157]
- Inhibition rate against osteoclast formation, % (0.1 μM): 4.87%
- Inhibition rate against osteoclast formation, % (1 μM): 10.71%
- Inhibition rate against osteoclast formation, % (10 μM): 97.46%

Compound: Cc1ccc(F)c(NC(=O)c2ccc(COc3ccccc3[N+](=O)[O-])o2)c1 [Compound 158]
- Inhibition rate against osteoclast formation, % (0.1 μM): 0%
- Inhibition rate against osteoclast formation, % (1 μM): 0%
- Inhibition rate against osteoclast formation, % (10 μM): 23.57%

Compound: CC(=O)c1ccc(NC(=O)c2ccc(COc3cccc4ccccc34)o2)cc1 [Compound 160]
- Inhibition rate against osteoclast formation, % (0.1 μM): 0%
- Inhibition rate against osteoclast formation, % (1 μM): 0%
- Inhibition rate against osteoclast formation, % (10 μM): 38.96%

Compound: O=C(Nc1cc(F)ccc1F)c1ccc(COc2ccccc2Cl)o1 [Compound 161]
- Inhibition rate against osteoclast formation, % (0.1 μM): 0%
- Inhibition rate against osteoclast formation, % (1 μM): 0%
- Inhibition rate against osteoclast formation, % (10 μM): 11.33%

Compound: CCc1cccc(NC(=O)c2ccc(COc3ccc(F)cc3)o2)c1 [Compound 163]
- Inhibition rate against osteoclast formation, % (0.1 μM): 0%
- Inhibition rate against osteoclast formation, % (1 μM): 0%
- Inhibition rate against osteoclast formation, % (10 μM): 51.2%

Compound: CCCc1ccc(OCc2ccc(C(=O)Nc3ccc(OC)c(OC)c3)o2)cc1 [Compound 164]
- Inhibition rate against osteoclast formation, % (0.1 μM): 0%
- Inhibition rate against osteoclast formation, % (1 μM): 0%
- Inhibition rate against osteoclast formation, % (10 μM): 30.52%

Compound: CCOc1ccc(OCc2ccc(C(=O)NC(C)(C)C)o2)cc1 [Compound 165]
- Inhibition rate against osteoclast formation, % (0.1 μM): 12.35%
- Inhibition rate against osteoclast formation, % (1 μM): 28.76%
- Inhibition rate against osteoclast formation, % (10 μM): 88.75%

Compound: COc1ccccc1NC(=O)c1ccc(COc2ccccc2OC)o1 [Compound 166]
- Inhibition rate against osteoclast formation, % (0.1 μM): 0%
- Inhibition rate against osteoclast formation, % (1 μM): 0%
- Inhibition rate against osteoclast formation, % (10 μM): 1.08%

Compound: COC(=O)c1ccccc1NC(=O)c1ccc(COc2ccc(Cl)cc2Cl)o1 [Compound 167]
- Inhibition rate against osteoclast formation, % (0.1 μM): 0%
- Inhibition rate against osteoclast formation, % (1 μM): 22.42%
- Inhibition rate against osteoclast formation, % (10 μM): 96.47%

Compound: CCc1ccc(OCc2ccc(C(=O)Nc3cc(C)cc(C)c3)o2)cc1 [Compound 169]
- Inhibition rate against osteoclast formation, % (0.1 μM): 0%
- Inhibition rate against osteoclast formation, % (1 μM): 0%
- Inhibition rate against osteoclast formation, % (10 μM): 21.04%
